# Source: patent US20130203805A1, “Methods for treating anemia using inhibitors of hypoxia-inducible factor (HIF) hydroxylase” (FIBROGEN, INC., priority 2001, published 2013)
# Tested on: erythropoietin gene expression
# Test: Erythropoietin gene expression in liver and kidney by quantitative PCR (Example 2, Experiment I)
# Format: in vivo, Swiss Webster male mice
# Conditions: mice, 200 mg/kg/day oral gavage twice daily 2.5 days (5 doses), 4 h after final dose, FIG. 2A
# Description: Twelve Swiss Webster male mice (30-32 g) were obtained from Simonsen, Inc. (Gilroy Calif.), and treated by oral gavage two times per day for 2.5 days (5 doses) with a 4 ml/kg volume of either 0.5% carboxymethyl cellulose (CMC; Sigma-Aldrich, St. Louis Mo.) (0 mg/kg/day) or 2.5% Compound C (25 mg/ml in 0.5% CMC) (200 mg/kg/day). Four hours after the final dose, animals were anesthetized with isoflurane and two blood samples were collected from the abdominal vein. One blood sample was collected into a MICROTAINER serum separator tube (Becton-Dickinson, Franklin Lakes N.J.), and incubated at room temperature for 30 minutes, centrifuged at 8,000 rpm at 4° C. for 10 minutes. The serum fraction was then processed and analyzed for erythropoietin (EPO) expression using a QUANTIKINE immunoassay (R&D Systems) according to the manufacturer's instructions. […] Hematocrit was measured by drawing EDTA-blood into a 75 mm×1.1-12 mm I.D. capillary tube (Chase Scientific Glass, Inc., Rockwood Tenn.) to approximately ¾ length. […] Hematocrit was read against a reader card. […]
# RNA isolation was carried out using the following protocol. […] The RNA was eluted into 80 μL of water and quantitated with RIBOGREEN reagent (Molecular Probes, Eugene Oreg.). […] The absorbance at 260 and 280 nm was measured to determine RNA purity and concentration. […]
# The relative level of 18S ribosomal RNA gene expression was measured as a control. […]
smiles,measurement,setting,value
"O=C(O)CNC(=O)c1nc(Cl)c2ccccc2c1O [Compound C, [(1-chloro-4-hydroxy-isoquinoline-3-carbonyl)-amino]-acetic acid]","increase over background in EPO transcript level, kidney",relative to untreated kidney,approximately 580 fold
same,"increase over background in EPO transcript level, liver",relative to untreated liver,approximately 32 fold
